The text below walks through data of patent US9745320B2, “Five-and-six-membered heterocyclic compound, and preparation method, pharmaceutical composition and use thereof” (SHANGHAI CHEMEXPLORER CO., LTD., priority 2013, dated 2017).

What all share (format): biochemical
Experiment [1] concerns the target JAK2 (Homo sapiens, UniProt O60674). Nature of the experiment: JAK 2 enzymatic inhibitory activity IC50 assay (Caliper conversion rate). Particulars: Km ATP, 28° C., 1 hour. The procedure, abridged:
(§1)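 Human JAK1 or JAK2 enzyme was preincubated with graded compound (2% DMSO) in HEPES pH 7.5/Brij-35/DTT buffer (JAK1 also with Triton), then peptide substrate, 10 mM MgCl2 and ATP at Km were added. Reactions ran 1 hour at 28° C; Caliper conversion rate gave inhibition, averaged over two tests, for IC50.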

Experiment [2] has as its target JAK1 (Homo sapiens, UniProt P23458). Nature of the experiment: JAK 1 enzymatic inhibitory activity IC50 assay (Caliper conversion rate). Particulars: Km ATP, 28° C., 1 hour. The procedure, abridged:
as §1

The target in experiment [3] is T1, JAK3 (Homo sapiens, UniProt P52333).
T1 sequence (P52333 1-1124): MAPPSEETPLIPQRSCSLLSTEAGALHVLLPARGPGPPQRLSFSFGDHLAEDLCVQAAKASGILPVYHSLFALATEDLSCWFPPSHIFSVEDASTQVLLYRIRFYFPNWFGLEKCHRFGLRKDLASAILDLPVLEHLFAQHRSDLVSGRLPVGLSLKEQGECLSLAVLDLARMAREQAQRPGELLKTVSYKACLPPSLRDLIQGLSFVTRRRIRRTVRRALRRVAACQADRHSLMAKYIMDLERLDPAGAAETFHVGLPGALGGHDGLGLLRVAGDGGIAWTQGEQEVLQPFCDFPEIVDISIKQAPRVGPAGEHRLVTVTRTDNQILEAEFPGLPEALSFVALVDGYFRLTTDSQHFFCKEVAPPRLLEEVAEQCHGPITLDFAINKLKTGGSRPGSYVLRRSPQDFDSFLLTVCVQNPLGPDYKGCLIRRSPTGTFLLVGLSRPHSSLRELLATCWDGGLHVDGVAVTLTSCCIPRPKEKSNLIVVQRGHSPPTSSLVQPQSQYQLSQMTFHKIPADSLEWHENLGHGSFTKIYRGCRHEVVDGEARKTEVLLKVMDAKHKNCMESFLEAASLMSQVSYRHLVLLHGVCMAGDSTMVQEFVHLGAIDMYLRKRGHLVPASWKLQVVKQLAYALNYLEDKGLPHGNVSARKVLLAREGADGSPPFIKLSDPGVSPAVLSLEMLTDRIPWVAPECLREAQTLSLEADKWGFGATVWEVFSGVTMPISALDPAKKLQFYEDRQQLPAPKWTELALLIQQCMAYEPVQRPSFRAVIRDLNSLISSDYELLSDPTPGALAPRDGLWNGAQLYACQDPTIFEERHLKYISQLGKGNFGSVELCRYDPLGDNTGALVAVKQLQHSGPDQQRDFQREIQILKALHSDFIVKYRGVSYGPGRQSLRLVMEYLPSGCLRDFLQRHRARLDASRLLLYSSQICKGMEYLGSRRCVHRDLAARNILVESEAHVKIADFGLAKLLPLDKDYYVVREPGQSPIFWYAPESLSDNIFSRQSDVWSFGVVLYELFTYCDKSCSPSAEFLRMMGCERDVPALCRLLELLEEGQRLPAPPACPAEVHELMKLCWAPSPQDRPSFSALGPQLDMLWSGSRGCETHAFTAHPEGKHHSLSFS
Nature of the experiment: JAK 3 enzymatic inhibitory activity IC50 assay (Caliper conversion rate).

[4] abbreviates: Km ATP, 28° C., 1 hour, read-out: JAK 3 enzymatic inhibitory activity IC50.

The structures appear in SMILES notation. Where two headings read alike, the source gives them in different places. A value given as a limit tells only on which side of the number the result lay.

Sequence of JAK2 (O60674 whole entry, species assumed): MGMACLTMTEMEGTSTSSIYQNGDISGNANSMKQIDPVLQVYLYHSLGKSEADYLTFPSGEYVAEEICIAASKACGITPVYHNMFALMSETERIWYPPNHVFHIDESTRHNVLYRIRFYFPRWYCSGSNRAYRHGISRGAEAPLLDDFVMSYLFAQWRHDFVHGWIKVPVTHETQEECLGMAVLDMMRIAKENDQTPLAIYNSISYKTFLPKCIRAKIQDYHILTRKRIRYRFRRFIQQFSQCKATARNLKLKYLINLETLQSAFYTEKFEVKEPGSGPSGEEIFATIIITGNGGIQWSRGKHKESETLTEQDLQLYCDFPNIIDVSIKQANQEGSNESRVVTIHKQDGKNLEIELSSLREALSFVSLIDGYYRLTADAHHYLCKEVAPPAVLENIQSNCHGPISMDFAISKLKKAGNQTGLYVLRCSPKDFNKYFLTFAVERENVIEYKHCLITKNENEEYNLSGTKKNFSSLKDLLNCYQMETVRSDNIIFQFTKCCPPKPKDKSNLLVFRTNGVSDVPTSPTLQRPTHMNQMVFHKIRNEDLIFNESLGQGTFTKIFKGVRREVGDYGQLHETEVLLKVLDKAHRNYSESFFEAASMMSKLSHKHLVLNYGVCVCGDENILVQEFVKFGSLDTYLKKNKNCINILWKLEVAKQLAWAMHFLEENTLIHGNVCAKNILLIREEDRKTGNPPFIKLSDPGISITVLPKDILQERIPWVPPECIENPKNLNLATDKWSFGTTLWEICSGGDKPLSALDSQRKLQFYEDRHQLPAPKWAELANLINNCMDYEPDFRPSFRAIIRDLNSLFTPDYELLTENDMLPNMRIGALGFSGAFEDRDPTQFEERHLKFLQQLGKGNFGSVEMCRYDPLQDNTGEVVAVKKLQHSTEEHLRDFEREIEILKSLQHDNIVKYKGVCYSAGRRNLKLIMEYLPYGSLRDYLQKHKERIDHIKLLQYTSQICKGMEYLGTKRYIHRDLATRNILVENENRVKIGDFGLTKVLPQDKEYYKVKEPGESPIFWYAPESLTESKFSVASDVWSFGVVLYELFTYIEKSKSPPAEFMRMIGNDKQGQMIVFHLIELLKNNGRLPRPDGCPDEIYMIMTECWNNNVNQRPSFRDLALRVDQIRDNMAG
Sequence of JAK1 (P23458 whole entry, species assumed): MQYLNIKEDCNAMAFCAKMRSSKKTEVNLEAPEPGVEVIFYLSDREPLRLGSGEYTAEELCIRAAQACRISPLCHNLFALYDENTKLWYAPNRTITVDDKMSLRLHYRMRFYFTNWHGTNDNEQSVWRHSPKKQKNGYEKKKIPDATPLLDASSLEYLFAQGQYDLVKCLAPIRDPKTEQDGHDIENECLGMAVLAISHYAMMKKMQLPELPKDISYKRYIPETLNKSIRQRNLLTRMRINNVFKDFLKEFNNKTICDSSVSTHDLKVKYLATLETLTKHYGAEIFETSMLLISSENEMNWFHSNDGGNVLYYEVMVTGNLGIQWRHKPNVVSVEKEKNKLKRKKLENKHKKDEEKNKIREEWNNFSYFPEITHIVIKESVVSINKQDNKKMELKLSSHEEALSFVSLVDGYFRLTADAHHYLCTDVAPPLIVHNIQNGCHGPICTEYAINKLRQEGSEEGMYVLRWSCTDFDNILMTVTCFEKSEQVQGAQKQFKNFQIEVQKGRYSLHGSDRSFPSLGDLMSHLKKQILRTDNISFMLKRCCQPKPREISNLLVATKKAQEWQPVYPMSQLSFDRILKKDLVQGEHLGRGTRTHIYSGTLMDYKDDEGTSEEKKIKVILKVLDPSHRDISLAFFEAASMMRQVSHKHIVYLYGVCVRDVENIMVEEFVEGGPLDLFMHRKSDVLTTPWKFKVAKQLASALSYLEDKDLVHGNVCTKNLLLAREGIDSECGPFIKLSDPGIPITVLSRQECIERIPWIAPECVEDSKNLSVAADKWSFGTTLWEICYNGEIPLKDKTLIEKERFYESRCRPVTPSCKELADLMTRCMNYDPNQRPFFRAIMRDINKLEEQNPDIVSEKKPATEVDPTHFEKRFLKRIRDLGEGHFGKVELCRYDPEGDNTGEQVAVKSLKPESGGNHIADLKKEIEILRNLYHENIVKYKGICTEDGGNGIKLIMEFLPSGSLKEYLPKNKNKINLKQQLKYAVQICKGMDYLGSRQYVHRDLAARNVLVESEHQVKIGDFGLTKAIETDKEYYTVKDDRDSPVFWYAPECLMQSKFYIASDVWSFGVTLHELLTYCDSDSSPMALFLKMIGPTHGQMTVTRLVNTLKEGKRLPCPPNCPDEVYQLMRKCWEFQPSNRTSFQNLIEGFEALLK

For the molecule `CCS(=O)(=O)N1CC(CC#N)(n2cc(-c3nc(Nc4cccc(N5CCOCC5)c4)nc4ccsc34)cn2)C1` [Compound T-13, 2-(1-(Ethylsulfonyl)-3-(4-(2-((3-morpholinophenyl)amino)thieno[3,2-d]pyrimidin-4-yl)-1H-pyrazol-1-yl)azetidin-3-yl)acetonitrile], the IC50 in experiment [1] lay in the range of 0.05 to 0.5 µM; in experiment [2], 0.5 to 1 µM; in experiment [3] (setting [4]), 0.5 to 1 µM.
As for `CCCCOC(=O)CCn1cc(Nc2nc(-c3cnn(C4(CC#N)CN(S(=O)(=O)CC)C4)c3)c3sccc3n2)cn1` [Compound T-34, Butyl 3-(4-((4-(1-(3-(cyanomethyl)-1-(ethylsulfonyl)azetidin-3-yl)-1H-pyrazol-4-yl)thieno[3,2-d]pyrimidin-2-yl)amino)-1H-pyrazol-1-yl)propanoate], the IC50 is less than 0.05 µM in experiment [1], 0.05 to 0.5 µM in experiment [2] and 0.05 to 0.5 µM in experiment [3] (setting [4]).
On to `CCS(=O)(=O)N1CC(CC#N)(n2cc(-c3nc(Nc4cnn(CCCN5CCOCC5)c4)nc4ccsc34)cn2)C1` [Compound T-60, 2-(1-(Ethylsulfonyl)-3-(4-(2-((1-(3-morpholinopropyl)-1H-pyrazol-4-yl)amino)thieno[3,2-d]pyrimidin-4-yl)-1H-pyrazol-1-yl)azetidin-3-yl)acetonitrile], for which the IC50 in experiment [1], in experiment [2] and in experiment [3] (setting [4]) was less than 0.05 µM in each case.
For the molecule `C[C@H](O)Cn1cc(Nc2nc(-c3cnn(C4(CC#N)COC4)c3)c3sccc3n2)cn1` [Compound T-81, (S)-2-(3-(4-(2-((1-(2-Hydroxypropyl)-1H-pyrazol-4-yl)amino)thieno[3,2-d]pyrimidin-4-yl)-1H-pyrazol-1-yl)oxetan-3-yl)acetonitrile], the IC50 in experiment [1] is less than 0.05 µM; in experiment [2], 0.05 to 0.5 µM; in experiment [3] (setting [4]) it was 0.05 to 0.5 µM.
For the molecule `CCS(=O)(=O)N1CC(CC#N)(n2cc(-c3nc(Nc4cnn(C(C)C)c4)nc4ccsc34)cn2)C1` [Compound T-41, 2-(1-(Ethylsulfonyl)-3-(4-(2-((1-isopropyl-1H-pyrazol-4-yl)amino)thieno[3,2-d]pyrimidin-4-yl)-1H-pyrazol-1-yl)azetidin-3-yl)acetonitrile], the IC50 in experiment [1], in experiment [2] and in experiment [3] (setting [4]) was less than 0.05 µM in each case.
`CCS(=O)(=O)N1CC(CC#N)(n2cc(-c3nc(Nc4cnn(C)c4)nc4ccsc34)cn2)C1` [Compound T-15, 2-(1-(Ethylsulfonyl)-3-(4-(2-((1-methyl-1H-pyrazol-4-yl)amino)thieno[3,2-d]pyrimidin-4-yl)-1H-pyrazol-1-yl)azetidin-3-yl)acetonitrile]: the IC50 in experiment [1] was less than 0.05 µM; in experiment [2], less than 0.05 µM; in experiment [3] (setting [4]) it was 0.05 to 0.5 µM.
Consider `CCC(=O)N1CC(CC#N)(n2cc(-c3nc(Nc4cnn(C)c4)nc4ccsc34)cn2)C1` [Compound T-46, 2-(3-(4-(2-((1-Methyl-1H-pyrazol-4-yl)amino)thieno[3,2-d]pyrimidin-4-yl)-1H-pyrazol-1-yl)-1-propionylazetidin-3-yl)acetonitrile], for which the IC50 in experiment [1] was less than 0.05 µM; in experiment [2], 0.05 to 0.5 µM; in experiment [3] (setting [4]) it was 0.5 to 1 µM.
Consider `N#CCC1(n2cc(-c3nc(Nc4cnn(C5CC5)c4)nc4ccsc34)cn2)CC1` [Compound T-76, 2-(1-(4-(2-((1-Cyclopropyl-1H-pyrazol-4-yl)amino)thieno[3,2-d]pyrimidin-4-yl)-1H-pyrazol-1-yl)cyclopropyl)acetonitrile], for which the IC50 was less than 0.05 µM in experiment [1], 0.05 to 0.5 µM in experiment [2] and 0.05 to 0.5 µM in experiment [3] (setting [4]).
Consider `CCS(=O)(=O)N1CC(CC#N)(n2cc(-c3nc(Nc4cncnc4)nc4ccsc34)cn2)C1` [Compound T-14, 2-(1-(Ethylsulfonyl)-3-(4-(2-(pyrimidin-5-ylamino)thieno[3,2-d]pyrimidin-4-yl)-1H-pyrazol-1-yl)azetidin-3-yl)acetonitrile], for which the figures for the IC50 in experiment [1], in experiment [2] and in experiment [3] (setting [4]) were less than 0.05 µM, 0.5 to 1 µM and more than 1 µM, respectively.
With `CCS(=O)(=O)N1CC(CC#N)(n2cc(-c3nc(Nc4cnn(C)c4)nc4cc(Cl)sc34)cn2)C1` [Compound T-68, 2-(3-(4-(6-Chloro-2-((1-methyl-1H-pyrazol-4-yl)amino)thieno[3,2-d]pyrimidin-4-yl)-1H-pyrazol-1-yl)-1-(ethylsulfonyl)azetidin-3-yl)acetonitrile], the IC50 in experiment [1] is 0.05 to 0.5 µM; in experiment [2], more than 1 µM; in experiment [3] (setting [4]) it was more than 1 µM.
For the molecule `CCS(=O)(=O)N1CC(CC#N)(n2cc(-c3nc(Nc4ccc(S(C)(=O)=O)cc4)nc4sccc34)cn2)C1` [Compound T-18, 2-(1-(Ethylsulfonyl)-3-(4-(2-((4-(methylsulfonyl)phenyl)amino)thieno[2,3-d]pyrimidin-4-yl)-1H-pyrazol-1-yl)azetidin-3-yl)acetonitrile], the IC50 in experiment [1] is less than 0.05 µM; in experiment [2], 0.05 to 0.5 µM; in experiment [3] (setting [4]), 0.5 to 1 µM.
Regarding `Cn1cc(Nc2nc(-c3cnn(C4(CC#N)CN(C(=O)CO)C4)c3)c3sccc3n2)cn1` [Compound T-49, 2-(1-(2-Hydroxyacetyl)-3-(4-(2-((1-methyl-1H-pyrazol-4-yl)amino)thieno[3,2-d]pyrimidin-4-yl)-1H-pyrazol-1-yl)azetidin-3-yl)acetonitrile], the IC50 is less than 0.05 µM in experiment [1], 0.5 to 1 µM in experiment [2] and 0.5 to 1 µM in experiment [3] (setting [4]).
For the molecule `CCS(=O)(=O)N1CC(CC#N)(n2cc(-c3cc(Nc4ccccc4)nc4ccnn34)cn2)C1` [Compound T-55, 2-(1-(Ethylsulfonyl)-3-(4-(5-(phenylamino)pyrazolo[1,5-a]pyrimidin-7-yl)-1H-pyrazol-1-yl)azetidin-3-yl)acetonitrile], the IC50 in experiment [1], in experiment [2] and in experiment [3] was more than 1 µM in each case.
`CCS(=O)(=O)N1CC(CC#N)(n2cc(-c3nc(Nc4cnn(CCC#N)c4)nc4ccsc34)cn2)C1` [Compound T-71, 3-(4-((4-(1-(3-(Cyanomethyl)-1-(ethylsulfonyl)azetidin-3-yl)-1H-pyrazol-4-yl)thieno[3,2-d]pyrimidin-2-yl)amino)-1H-pyrazol-1-yl)propanenitrile]: the IC50 in experiment [1], in experiment [2] and in experiment [3] (setting [4]) was less than 0.05 µM each time.
Turning to `CCS(=O)(=O)N1CC(CC#N)(n2cc(-c3nc(Nc4cnn(CCC(=O)O)c4)nc4ccsc34)cn2)C1` [Compound T-35, 3-(4-((4-(1-(3-(Cyanomethyl)-1-(ethylsulfonyl)azetidin-3-yl)-1H-pyrazol-4-yl)thieno[3,2-d]pyrimidin-2-yl)amino)-1H-pyrazol-1-yl)propanoic acid], the IC50 in experiment [1] is less than 0.05 µM; in experiment [2] it was less than 0.05 µM; in experiment [3] (setting [4]), 0.05 to 0.5 µM.
For `CCS(=O)(=O)N1CC(CC#N)(n2cc(-c3nc(Nc4ccc(C#N)cc4)nc4ccsc34)cn2)C1` [Compound T-19, 4-((4-(1-(3-(Cyanomethyl)-1-(ethylsulfonyl)azetidin-3-yl)-1H-pyrazol-4-yl)thieno[3,2-d]pyrimidin-2-yl)amino)benzonitrile], the IC50 was less than 0.05 µM in experiment [1], 0.05 to 0.5 µM in experiment [2] and 0.05 to 0.5 µM in experiment [3] (setting [4]).
As for `CCS(=O)(=O)N1CC(CC#N)(n2cc(-c3nc(Nc4cnn(CCCc5nn[nH]n5)c4)nc4ccsc34)cn2)C1` [Compound T-61, 2-(3-(4-(2-((1-(3-(2H-Tetrazol-5-yl)propyl)-1H-pyrazol-4-yl)amino)thieno[3,2-d]pyrimidin-4-yl)-1H-pyrazol-1-yl)-1-(ethylsulfonyl)azetidin-3-yl)acetonitrile], the IC50 in experiment [1], in experiment [2] and in experiment [3] (setting [4]) was less than 0.05 µM each time.
